Measurements published in the supplement of paper PMC11208160.

assay: recombinant barcode read abundance after kanamycin selection (control-corrected) (log10(CPM+1)); higher = more efficient recombination; sequences stand for … in AGTGCAGAGAAAATCGGCCAGTTTTCTCTGCCTGCAGTCCGCATGCCGT…ATTTATGCAGCGGACTGCCTTTCTCCCAAAGTGATAAACCGGACAGTATCATGGACCGGTTTTCCCGGTAATCCGTATTTGCAAGGTTGGTTTCACT; site = the 11-nt target
Description: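 Same pooled E. coli target screen (IS621 bridge recombinase, kanamycin selection, control-corrected CPM, mean of 2 biological replicates). Here the two core-binding nucleotides of the LTG and RTG of the bridge RNA target-binding loop are mutated. Target and donor CT cores are held constant, and the other 9 guide positions match the target. The target is read from the library oligo sequence. Molecule = full bridge RNA written as DNA: nt 1-80 from the library oligo, rest WT scaffold.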

Row | Sequence | recombinant barcode read abundance (log10)
1 | AGGAGGTCTTGGGTTCTAACCTGTTGCCTCG [AGGAGGTCTAG_LTGcore_CT_RTGcore_CG] (site AGGAGGTCTAG) (LTG core: CT, RTG core: CG) | 0.386
2 | AGGAGGTCTTGGGTTCTAACCTGTTGCCTGT [AGGAGGTCTAG_LTGcore_CT_RTGcore_AC] (site AGGAGGTCTAG) (LTG core: CT, RTG core: AC) | 0.126
3 | AGGAGGTTCTGGGTTCTAACCTGTTGCCTGA [AGGAGGTCTAG_LTGcore_TC_RTGcore_TC] (site AGGAGGTCTAG) (LTG core: TC, RTG core: TC) | 0.0288
4 | AGGCCTCAATGGGTTCTAACCTGTTGCCTTT [AGGCCTCCTAG_LTGcore_AA_RTGcore_AA] (site AGGCCTCCTAG) (LTG core: AA, RTG core: AA) | 0.0414
5 | AGGCCTCACTGGGTTCTAACCTGTTGCCTAG [AGGCCTCCTAG_LTGcore_AC_RTGcore_CT] (site AGGCCTCCTAG) (LTG core: AC, RTG core: CT) | 0.134
6 | AGGCCTCAGTGGGTTCTAACCTGTTGCCTCT [AGGCCTCCTAG_LTGcore_AG_RTGcore_AG] (site AGGCCTCCTAG) (LTG core: AG, RTG core: AG) | 0.182
7 | AGGCCTCCCTGGGTTCTAACCTGTTGCCTAG [AGGCCTCCTAG_LTGcore_CC_RTGcore_CT] (site AGGCCTCCTAG) (LTG core: CC, RTG core: CT) | 0.293
8 | AGGCCTCCTTGGGTTCTAACCTGTTGCCTCA [AGGCCTCCTAG_LTGcore_CT_RTGcore_TG] (site AGGCCTCCTAG) (LTG core: CT, RTG core: TG) | 0.154
9 | AGGCCTCCTTGGGTTCTAACCTGTTGCCTGC [AGGCCTCCTAG_LTGcore_CT_RTGcore_GC] (site AGGCCTCCTAG) (LTG core: CT, RTG core: GC) | 0.112
10 | AGGCCTCCTTGGGTTCTAACCTGTTGCCTGG [AGGCCTCCTAG_LTGcore_CT_RTGcore_CC] (site AGGCCTCCTAG) (LTG core: CT, RTG core: CC) | 0.337
11 | AGGCCTCCTTGGGTTCTAACCTGTTGCCTTG [AGGCCTCCTAG_LTGcore_CT_RTGcore_CA] (site AGGCCTCCTAG) (LTG core: CT, RTG core: CA) | 0.722
12 | AGGCCTCGGTGGGTTCTAACCTGTTGCCTCC [AGGCCTCCTAG_LTGcore_GG_RTGcore_GG] (site AGGCCTCCTAG) (LTG core: GG, RTG core: GG) | 0.0521
13 | AGGCCTCTCTGGGTTCTAACCTGTTGCCTGA [AGGCCTCCTAG_LTGcore_TC_RTGcore_TC] (site AGGCCTCCTAG) (LTG core: TC, RTG core: TC) | 0.047
14 | AGGCCTCTTTGGGTTCTAACCTGTTGCCTAA [AGGCCTCCTAG_LTGcore_TT_RTGcore_TT] (site AGGCCTCCTAG) (LTG core: TT, RTG core: TT) | 0.196
15 | AGGCCTCTTTGGGTTCTAACCTGTTGCCTAG [AGGCCTCCTAG_LTGcore_TT_RTGcore_CT] (site AGGCCTCCTAG) (LTG core: TT, RTG core: CT) | 0.103
16 | AGGCGGGCATGGGTTCTAACCTGTTGCGGAG [AGGCGGGCTCC_LTGcore_CA_RTGcore_CT] (site AGGCGGGCTCC) (LTG core: CA, RTG core: CT) | 2.3
17 | AGGCGGGCATGGGTTCTAACCTGTTGCGGTG [AGGCGGGCTCC_LTGcore_CA_RTGcore_CA] (site AGGCGGGCTCC) (LTG core: CA, RTG core: CA) | 0.776
18 | AGGCGGGCGTGGGTTCTAACCTGTTGCGGCG [AGGCGGGCTCC_LTGcore_CG_RTGcore_CG] (site AGGCGGGCTCC) (LTG core: CG, RTG core: CG) | 0.0653
19 | AGGCGGGCTTGGGTTCTAACCTGTTGCGGAA [AGGCGGGCTCC_LTGcore_CT_RTGcore_TT] (site AGGCGGGCTCC) (LTG core: CT, RTG core: TT) | 0.532
20 | AGGCGGGCTTGGGTTCTAACCTGTTGCGGGG [AGGCGGGCTCC_LTGcore_CT_RTGcore_CC] (site AGGCGGGCTCC) (LTG core: CT, RTG core: CC) | 0.756
21 | AGGCGGGGGTGGGTTCTAACCTGTTGCGGCC [AGGCGGGCTCC_LTGcore_GG_RTGcore_GG] (site AGGCGGGCTCC) (LTG core: GG, RTG core: GG) | 0.0346
22 | AGGCGGGTATGGGTTCTAACCTGTTGCGGAG [AGGCGGGCTCC_LTGcore_TA_RTGcore_CT] (site AGGCGGGCTCC) (LTG core: TA, RTG core: CT) | 0.232

Row | Sequence | recombinant barcode read abundance (log10)
23 | AGGCGGGTTTGGGTTCTAACCTGTTGCGGAG [AGGCGGGCTCC_LTGcore_TT_RTGcore_CT] (site AGGCGGGCTCC) (LTG core: TT, RTG core: CT) | 0.475
24 | AGGCGGTACTGGGTTCTAACCTGTTGCTTAG [AGGCGGTCTAA_LTGcore_AC_RTGcore_CT] (site AGGCGGTCTAA) (LTG core: AC, RTG core: CT) | 0.272
25 | AGGCGGTATTGGGTTCTAACCTGTTGCTTAT [AGGCGGTCTAA_LTGcore_AT_RTGcore_AT] (site AGGCGGTCTAA) (LTG core: AT, RTG core: AT) | 0.109
26 | AGGCGGTCCTGGGTTCTAACCTGTTGCTTAG [AGGCGGTCTAA_LTGcore_CC_RTGcore_CT] (site AGGCGGTCTAA) (LTG core: CC, RTG core: CT) | 0.341
27 | AGGCGGTCCTGGGTTCTAACCTGTTGCTTGG [AGGCGGTCTAA_LTGcore_CC_RTGcore_CC] (site AGGCGGTCTAA) (LTG core: CC, RTG core: CC) | 0.334
28 | AGGCGGTCGTGGGTTCTAACCTGTTGCTTAG [AGGCGGTCTAA_LTGcore_CG_RTGcore_CT] (site AGGCGGTCTAA) (LTG core: CG, RTG core: CT) | 0.398
29 | AGGCGGTCTTGGGTTCTAACCTGTTGCTTCA [AGGCGGTCTAA_LTGcore_CT_RTGcore_TG] (site AGGCGGTCTAA) (LTG core: CT, RTG core: TG) | 0.171
30 | AGGCGGTCTTGGGTTCTAACCTGTTGCTTCG [AGGCGGTCTAA_LTGcore_CT_RTGcore_CG] (site AGGCGGTCTAA) (LTG core: CT, RTG core: CG) | 0.117
31 | AGGCGGTCTTGGGTTCTAACCTGTTGCTTTA [AGGCGGTCTAA_LTGcore_CT_RTGcore_TA] (site AGGCGGTCTAA) (LTG core: CT, RTG core: TA) | 0.353
32 | AGGCGGTGTTGGGTTCTAACCTGTTGCTTAC [AGGCGGTCTAA_LTGcore_GT_RTGcore_GT] (site AGGCGGTCTAA) (LTG core: GT, RTG core: GT) | 0.278
33 | AGGCGGTTATGGGTTCTAACCTGTTGCTTAG [AGGCGGTCTAA_LTGcore_TA_RTGcore_CT] (site AGGCGGTCTAA) (LTG core: TA, RTG core: CT) | 0.168
34 | AGGCGGTTATGGGTTCTAACCTGTTGCTTTA [AGGCGGTCTAA_LTGcore_TA_RTGcore_TA] (site AGGCGGTCTAA) (LTG core: TA, RTG core: TA) | 0.025
35 | AGGCGGTTCTGGGTTCTAACCTGTTGCTTAG [AGGCGGTCTAA_LTGcore_TC_RTGcore_CT] (site AGGCGGTCTAA) (LTG core: TC, RTG core: CT) | 0
36 | AGGCGGTTCTGGGTTCTAACCTGTTGCTTGA [AGGCGGTCTAA_LTGcore_TC_RTGcore_TC] (site AGGCGGTCTAA) (LTG core: TC, RTG core: TC) | 0.191
37 | AGGCGGTTTTGGGTTCTAACCTGTTGCTTAG [AGGCGGTCTAA_LTGcore_TT_RTGcore_CT] (site AGGCGGTCTAA) (LTG core: TT, RTG core: CT) | 0.104
38 | AGTCTTAACTGGGTTCTAACCTGTTGCCAAG [AGTCTTACTTG_LTGcore_AC_RTGcore_CT] (site AGTCTTACTTG) (LTG core: AC, RTG core: CT) | 0.111
39 | AGTCTTAACTGGGTTCTAACCTGTTGCCAGT [AGTCTTACTTG_LTGcore_AC_RTGcore_AC] (site AGTCTTACTTG) (LTG core: AC, RTG core: AC) | 0.129
40 | AGTCTTAAGTGGGTTCTAACCTGTTGCCACT [AGTCTTACTTG_LTGcore_AG_RTGcore_AG] (site AGTCTTACTTG) (LTG core: AG, RTG core: AG) | 0.0305
41 | AGTCTTACCTGGGTTCTAACCTGTTGCCAAG [AGTCTTACTTG_LTGcore_CC_RTGcore_CT] (site AGTCTTACTTG) (LTG core: CC, RTG core: CT) | 0.0498
42 | AGTCTTACTTGGGTTCTAACCTGTTGCCATG [AGTCTTACTTG_LTGcore_CT_RTGcore_CA] (site AGTCTTACTTG) (LTG core: CT, RTG core: CA) | 0.0163
43 | AGTCTTAGATGGGTTCTAACCTGTTGCCAAG [AGTCTTACTTG_LTGcore_GA_RTGcore_CT] (site AGTCTTACTTG) (LTG core: GA, RTG core: CT) | 0.23
44 | AGTCTTAGATGGGTTCTAACCTGTTGCCATC [AGTCTTACTTG_LTGcore_GA_RTGcore_GA] (site AGTCTTACTTG) (LTG core: GA, RTG core: GA) | 0.0257
